From US20230067064A1, “METHODS AND COMPOSITIONS FOR MODULATING SPLICING” (SkyHawk Therapeutics, Inc., priority 2019, published 2023) come the findings set out here.

Each structure is given as a SMILES string. Where two headings read alike, the source gives them in different places.

For one series, the system named is mHTT protein. Kind of series: mHTT protein assay, 2B7-MW1 Mesoscale Discovery (MSD). The class given is cell-based, human. Particulars: GM04724 lymphoblast cells, 48 hours, 2B7-MW1 MSD; average; read-out: HTT Potency - Protein & Cytotoxicity: EC50 mHTT (average). Here is the method: Compounds are tested on GM04724 (CAG 70/20) Huntington's disease patient lymphoblast cells at doses ranging from 10 μM to 0.6 nM. 4,500 cells/well are seeded in 384 well plates. One plate replica is carried out for parallel viability testing by CellTiter Glo (CTG). Compounds are incubated for 48 hours. mHTT protein levels are assessed by the 2B7-MW1 assay via Mesoscale Discovery (MSD) as previously reported (Macdonald et al., 2014). The antibody pair is comprised of previously characterized monoclonals (2B7 and MW1) interrogating two regions for HTT conformation and biological properties: the N17 domain and the polyQ domain (Baldo et al., 2012; Ko et., 2001). 2B7-MW1 is dependent on subject/animal specific levels of HTT at the time of treatment. 2B7-MW1 is dependent on polyQ expansion (e.g., the higher the expansion the higher the signal) and on mHTT size (e.g., a similar polyQ will give higher signal with smaller HTT size). The viability readout is carried out by CTG according to the manufacturer's instructions. The results are show in Table A-10.

The next series deals with SMN protein. Kind of series: SMN protein assay, Mesoscale Discovery (MSD). The class given is cell-based, human. Particulars: SMA patient fibroblasts (GM03813), 48 hours, average, read-out: SMN2 Potency - Protein: Protein FL EC50 (average). Here is the method:
Compounds are tested on spinal muscular atrophy (SMA) patient fibroblasts (GM03813, Coriell) at doses ranging from 2.5 μM to 0.6 nM. 7000 cells/well are seeded in 96-well plates. Compounds are incubated for 48 hours and the cells were lysed with 100 μL of lysis buffer. 20 μL of lysate is used for SMN protein measurement by Mesoscale Discovery (MSD) assay developed by PharmOptima (Michigan). A standard curve prepared with SMN protein ranging from 1 μg/ml to 19.5 pg/ml is used in each MSD plate to calculate the absolute SMN protein amount in each sample.

The test system of series [1] is MDR1-MDCK cell monolayers. Description: MDCK-MDR1 permeability assay, blood-brain-barrier (BBB) penetration potential. The class given is in vitro ADME. Here is the method: (§1) Each determination is performed in duplicate. […] Analytical conditions are outlined below.
(§2) Papp=(dCr/dt)×Vr/(A×CA) (1)

A further series deals with MDR1. The series is described as above. The conditions noted are these: dog, MDCK-MDR1, pH 7.4. The format is in vitro ADME. Here is the method: as §1, §2
For series [2], the system named is SMN FL and SMN Δ7 mRNA, spinal muscular atrophy (SMA) patient fibroblasts (GM03813). Kind of series: Quantitative splicing assay (SMN). Particulars: 24 h, average. The format is cell-based, human. Here is the method: Spinal muscular atrophy (SMA) patient fibroblasts (GM03813, Coriell) are plated in 96-well plates at 50,000 cells/well. […] Treated cells are lysed and cDNA synthesized using the Fast Advanced Cells-to-Ct kit (Thermofisher A35378) according to the manufacturer's instructions. 2 μL of each cDNA are used in qPCR reactions. […] Reactions are run in a Quant Studio 6 qPCR instrument with default settings.

The test system of series [3] is cryptic exon within intron 49 of the Huntingtin (HTT) transcripts, GM04724 (CAG 70/20) Huntington's disease patient lymphoblasts. Kind of series: Quantitative splicing assay (HTT). The class given is cell-based, human. The conditions noted are these: average. Here is the method:
GM04724 (CAG 70/20) Huntington's disease patient lymphoblasts (Coriell) are plated in 96-well v-bottom plates at 50,000 cells/well. Immediately after plating, cells are dosed with compound for 24 h at concentrations ranging from 2.5 uM to 0.15 nM (0.1% DMSO). Treated cells are lysed and cDNA synthesized using the Fast Advanced Cells-to-Ct kit (Thermofisher A35378) according to the manufacturer's instructions. 2 uL of each cDNA are used in qPCR reactions to confirm the compound-induced inclusion of a cryptic exon within intron 49 of the Huntingtin (HTT) transcripts. The qPCR reactions are prepared in 384-well plates in 10 uL volume, using TaqMan™ Fast Advanced Master Mix [ThermoFisher; 4444965] with primers and probes shown in the table below. Reactions are run in a Quant Studio 6 qPCR instrument with default settings.

Setting [4] is: dog, MDCK-MDR1, 120 min, 5 μM, pH 7.4.

As for `CN1[C@@H]2CCC[C@H]1C[C@H](Oc1ccc(-c3ccc(-n4ccnc4)cc3O)nn1)C2` [compound 302], the concentration for a half-maximal effect (EC50) in the series with mHTT protein was in the range of 501 to 10000 nM. In the series on SMN protein, the concentration giving a half-maximal response (EC50) is 51 to 100 nM. In series [1] (setting [4]), the “General MDCK-MDR1: % Recov A-B” value is reported as 90% and the “General MDCK-MDR1: % Recov B-A” value stood at 110%. Also, in the series on MDR1, the Papp A→B at 120 min, 5 μM was determined as 3.09 ×10⁻⁶ cm/s; the Papp B→A at 120 min, 5 μM turned out to be 55.8 ×10⁻⁶ cm/s; the efflux ratio at 120 min, 5 μM amounted to 18.
On to `CN1C2CC[C@@H]1C[C@@H](Oc1ccc(-c3ccc(-n4ccnc4)cc3O)nn1)C2` [compound 301], for which the EC50 in the series on SMN protein was 501 to 10000 nM. In series [1] (setting [4]), the “General MDCK-MDR1: % Recov A-B” value was 83% and the “General MDCK-MDR1: % Recov B-A” value was 91%. In the series with MDR1, the apical-to-basolateral permeability (Papp A→B) at 120 min, 5 μM turned out to be 2.34 ×10⁻⁶ cm/s; the Papp B→A at 120 min, 5 μM amounted to 48.2 ×10⁻⁶ cm/s; the efflux ratio at 120 min, 5 μM worked out at 21.
Regarding `COCC12CCC(CC(N(C)c3ccc(-c4cc(F)c(-n5ccnc5)cc4O)nn3)C1)N2` (single isomer, unassigned; ent1) [315-Ent1], the EC50 (with mHTT protein; in the series with SMN protein; in series [2] (read-out: SMN2 Potency - Splicing: Splicing FL EC50 (average)); in series [3] (read-out: HTT Potency - Splicing: E49-50 EC50 (average)); in series [3] (read-out: HTT Potency - Splicing: E49b EC50 (average))) was 0.01 to 15 nM in each case. In series [2] (read-out: SMN2 Potency - Splicing: Splicing D7 IC50 (average)), the half-maximal inhibitory concentration (IC50) lay within 0.01 to 15 nM. In series [1] (A-B direction), the “General MDCK-MDR1: % Recov A-B” value is given as 109%. The “General MDCK-MDR1: % Recov B-A” value in series [1] (B-A direction) is reported as 108%. In addition, in series [1] (efflux ratio), the “General MDCK-MDR1: Efflux” value came to 103.
With `CN1[C@@H]2CC[C@H]1C[C@H](Oc1ccc(-c3ccc(-c4cn[nH]c4)cc3O)nn1)C2` [compound 306], in the series on mHTT protein, the concentration for a half-maximal effect (EC50) lay in the range of 101 to 500 nM. The EC50 with SMN protein lay in the range of 501 to 10000 nM. Besides, in series [1] (setting [4]), the “General MDCK-MDR1: % Recov A-B” value was determined as 95% and the “General MDCK-MDR1: % Recov B-A” value turned out to be 102%. Besides, in the series on MDR1, the Papp A→B at 120 min, 5 μM was 1.19 ×10⁻⁶ cm/s; the Papp B→A at 120 min, 5 μM was determined as 55.4 ×10⁻⁶ cm/s; the efflux ratio at 120 min, 5 μM worked out at 47.
